Data: PubChem BioAssay AID194 (DTP/NCI, 2004)
Values joined by “and” are separate entries in the source; they are usually repeats but may differ in a detail not shown here. Equal entries are not always repeated. Records with an inconclusive call do not appear.

System: BDF1 mice, B16 melanoma s.c., survival/tumor T/C
Test: NCI In Vivo Anticancer Drug Screen. Data for tumor model B16 Melanoma (subcutaneous) in B6D2F1 (BDF1) mice
Details: endpoint: median survival time, higher = longer survival
Experimental: The antitumor activity of compounds was measured in mice bearing transplantable tumors. Survival or tumor size were measured and the results are expressed as the measurement made in the treated group (T) divided by the measurement made in the vehicle treated control group (C). The tumor model used in this assay is B16 Melanoma (subcutaneous) in B6D2F1 (BDF1) mice

[1] = dose: 3.0 mg/kg/injection, schedule: Q01DX009 (ip), vehicle: saline with Tween-80
[2] = dose: 0.5 mg/kg/injection, schedule: Q01DX009 (ip), vehicle: other
[3] = dose: 6.25 mg/kg/injection, schedule: Q01DX009 (ip), vehicle: water
[4] = dose: 12.5 mg/kg/injection, schedule: Q01DX009 (ip), vehicle: water
[5] = dose: 25.0 mg/kg/injection, schedule: Q01DX009 (ip), vehicle: water
[6] = dose: 50.0 mg/kg/injection, schedule: Q01DX009 (ip), vehicle: water
[7] = dose: 100.0 mg/kg/injection, schedule: Q01DX009 (ip), vehicle: water

O=C1NC2(CCCCC2)C(=O)N1CCN(CCCl)CCCl
T/C (dose: 1.5 mg/kg/injection, schedule: Q01DX009 (ip), vehicle: saline with Tween-80): 106 % of control
T/C [1]: 96 % of control
T/C (dose: 6.0 mg/kg/injection, schedule: Q01DX009 (ip), vehicle: saline with Tween-80): 118 % of control

N[C@H](C(=O)O)[C@@H]1CC(Cl)=NO1
T/C (dose: 1.0 mg/kg/injection, schedule: Q01DX009 (ip), vehicle: saline): 87 % of control and 114 % of control
T/C (dose: 1.4 mg/kg/injection, schedule: Q01DX009 (ip), vehicle: saline): 116 % of control
T/C (dose: 2.0 mg/kg/injection, schedule: Q01DX009 (ip), vehicle: saline): 95 % of control and 105 % of control
T/C (dose: 2.1 mg/kg/injection, schedule: Q01DX009 (ip), vehicle: saline): 120 % of control
T/C (dose: 3.2 mg/kg/injection, schedule: Q01DX009 (ip), vehicle: saline): 124 % of control
T/C (dose: 4.0 mg/kg/injection, schedule: Q01DX009 (ip), vehicle: saline): 90 % of control
T/C (dose: 8.0 mg/kg/injection, schedule: Q01DX009 (ip), vehicle: saline): 108 % of control
T/C (dose: 16.0 mg/kg/injection, schedule: Q01DX009 (ip), vehicle: saline): 101 % of control
T/C (dose: 27.0 mg/kg/injection, schedule: Q04DX003 (ip), vehicle: saline): 120 % of control
T/C (dose: 40.0 mg/kg/injection, schedule: Q01DX001 (ip), vehicle: saline): 103 % of control
T/C (dose: 40.0 mg/kg/injection, schedule: Q04DX003 (ip), vehicle: saline): 119 % of control
T/C (dose: 60.0 mg/kg/injection, schedule: Q01DX001 (ip), vehicle: saline): 113 % of control
T/C (dose: 60.0 mg/kg/injection, schedule: Q04DX003 (ip), vehicle: saline): 124 % of control
T/C (dose: 90.0 mg/kg/injection, schedule: Q01DX001 (ip), vehicle: saline): 112 % of control

Cc1c2ccncc2c(C)c2c1[nH]c1ccccc12
T/C (dose: 25.0 mg/kg/injection, schedule: Q04DX003 (ip), vehicle: Klucel (hydroxypropylcellulose) (HPC)): 105 % of control
T/C (dose: 50.0 mg/kg/injection, schedule: Q04DX003 (ip), vehicle: Klucel (hydroxypropylcellulose) (HPC)): 98 % of control
T/C (dose: 82.0 mg/kg/injection, schedule: Q04DX003 (ip), vehicle: saline with Tween-80): 122 % of control
T/C (dose: 400.0 mg/kg/injection, schedule: Q01DX001 (ip), vehicle: saline with Tween-80): 112 % of control
T/C (dose: 900.0 mg/kg/injection, schedule: Q01DX001 (ip), vehicle: saline with Tween-80): 114 % of control

CCCCNCCCNCCCNC(=O)c1csc(-c2csc(CCNC(=O)C(NC(=O)C(C)C(O)C(C)NC(=O)C(NC(=O)c3nc(C(CC(N)=O)NCC(N)C(N)=O)nc(N)c3C)C(OC3OC(CO)C(O)C(O)C3OC3OC(CO)C(O)C(OC(N)=O)C3O)c3cnc[nH]3)C(C)O)n2)n1 (stereo not given)
T/C (dose: 0.31 mg/kg/injection, schedule: Q01DX009 (ip), vehicle: water): 86 % of control
T/C (dose: 0.62 mg/kg/injection, schedule: Q01DX009 (ip), vehicle: water): 154 % of control
T/C (dose: 1.25 mg/kg/injection, schedule: Q01DX009 (ip), vehicle: water): 120 % of control
T/C (dose: 2.5 mg/kg/injection, schedule: Q01DX009 (ip), vehicle: water): 122 % of control
T/C (dose: 5.0 mg/kg/injection, schedule: Q01DX009 (ip), vehicle: water): 158 % of control

Cc1c(N)nc(C(CC(N)=O)NCC(N)C(N)=O)nc1C(=O)NC(C(=O)NC(C)C(O)C(C)C(=O)NC(C(=O)NCCc1nc(-c2nc(C(=O)NCCCNCCCc3ccccn3)cs2)cs1)C(C)O)C(OC1OC(CO)C(O)C(O)C1OC1OC(CO)C(O)C(OC(N)=O)C1O)c1cnc[nH]1 (stereo not given)
T/C (dose: 0.1 mg/kg/injection, schedule: Q01DX010 (ip), vehicle: water): 101 % of control
T/C (dose: 0.2 mg/kg/injection, schedule: Q01DX010 (ip), vehicle: water): 116 % of control and 124 % of control
T/C (dose: 0.4 mg/kg/injection, schedule: Q01DX010 (ip), vehicle: water): 96 % of control and 124 % of control
T/C (dose: 1.6 mg/kg/injection, schedule: Q01DX010 (ip), vehicle: water): 117 % of control
T/C (dose: 3.2 mg/kg/injection, schedule: Q01DX010 (ip), vehicle: water): 88 % of control

COC(=O)[C@@H]1c2cc3c(c(O)c2[C@@H](OC2OC(C)C(OC)C(C)(OC)C2OC)C[C@]1(C)O)C(=O)c1c(O)cc2c(c1C3=O)O[C@H]1O[C@]2(C)[C@H](O)[C@@H](N(C)C)[C@@H]1O (stereo not given in full)
T/C [2]: 90 % of control
T/C (dose: 125.0 micrograms/kg/injection, schedule: Q01DX009 (ip), vehicle: saline + alcohol): 118 % of control
T/C (dose: 500.0 micrograms/kg/injection, schedule: Q01DX009 (ip), vehicle: saline + alcohol): 118 % of control
T/C (dose: 1000.0 micrograms/kg/injection, schedule: Q01DX009 (ip), vehicle: saline + alcohol): 109 % of control

COc1cc(NS(C)(=O)=O)ccc1Nc1c2ccccc2nc2ccccc12
T/C [2]: 103 % of control
T/C (dose: 1.0 mg/kg/injection, schedule: Q01DX009 (ip), vehicle: other): 98 % of control
T/C (dose: 2.0 mg/kg/injection, schedule: Q01DX009 (ip), vehicle: other): 89 % of control
T/C (dose: 2.0 mg/kg/injection, schedule: Q01DX009 (ip), vehicle: saline with Tween-80): 102 % of control
T/C [1]: 101 % of control
T/C (dose: 4.5 mg/kg/injection, schedule: Q01DX009 (ip), vehicle: saline with Tween-80): 98 % of control
T/C (dose: 9.0 mg/kg/injection, schedule: Q04DX003 (ip), vehicle: saline with Tween-80): 89 % of control
T/C (dose: 13.0 mg/kg/injection, schedule: Q04DX003 (ip), vehicle: saline with Tween-80): 108 % of control
T/C (dose: 20.0 mg/kg/injection, schedule: Q01DX001 (ip), vehicle: saline with Tween-80): 101 % of control
T/C (dose: 20.0 mg/kg/injection, schedule: Q04DX003 (ip), vehicle: saline with Tween-80): 98 % of control
T/C (dose: 30.0 mg/kg/injection, schedule: Q01DX001 (ip), vehicle: saline with Tween-80): 107 % of control
T/C (dose: 45.0 mg/kg/injection, schedule: Q01DX001 (ip), vehicle: saline with Tween-80): 107 % of control

CCOC(=O)c1csc(CCNC(=O)c2ccccc2)n1
T/C [3]: 101 % of control
T/C [4]: 94 % of control
T/C [5]: 113 % of control
T/C [6]: 87 % of control
T/C [7]: 98 % of control

C=CCN1/C(=C/C=C\c2sc3ccccc3[n+]2CC=C)Sc2ccccc21
T/C (dose: 125.0 micrograms/kg/injection, schedule: Q01DX009 (ip), vehicle: suspension in saline): 121 % of control

COc1cc2c[n+](C)c3c4cc5c(cc4ccc3c2cc1OC)OCO5
T/C (dose: 3.12 mg/kg/injection, schedule: Q01DX009 (ip), vehicle: Klucel (hydroxypropylcellulose) (HPC)): 107 % of control
T/C (dose: 6.25 mg/kg/injection, schedule: Q01DX009 (ip), vehicle: Klucel (hydroxypropylcellulose) (HPC)): 96 % of control
T/C (dose: 12.5 mg/kg/injection, schedule: Q01DX009 (ip), vehicle: Klucel (hydroxypropylcellulose) (HPC)): 116 % of control

CC1(C)N=C(N)N=C(N)N1c1ccc(CCC(=O)Nc2ccc(S(=O)(=O)F)cc2)c(Cl)c1
T/C (dose: 6.25 mg/kg/injection, schedule: Q01DX009 (ip), vehicle: saline): 108 % of control
T/C (dose: 12.5 mg/kg/injection, schedule: Q01DX009 (ip), vehicle: saline): 103 % of control
T/C (dose: 25.0 mg/kg/injection, schedule: Q01DX009 (ip), vehicle: saline): 114 % of control

ClCC[N-]CC[N-]CCCl.ClCC[N-]CC[N-]CCCl.[O-][Cl+3]([O-])([O-])O.[Zn+2]
T/C (dose: 2.5 mg/kg/injection, schedule: Q01DX009 (ip), vehicle: saline with Tween-80): 102 % of control
T/C (dose: 5.0 mg/kg/injection, schedule: Q01DX009 (ip), vehicle: saline with Tween-80): 94 % of control
T/C (dose: 10.0 mg/kg/injection, schedule: Q01DX009 (ip), vehicle: saline with Tween-80): 115 % of control
T/C (dose: 20.0 mg/kg/injection, schedule: Q01DX009 (ip), vehicle: saline with Tween-80): 89 % of control

COC(=O)Nc1cccc(-c2nc3ccc(NC(=O)OC)cc3c(=O)n2-c2ccccc2)c1
T/C (dose: 50.0 mg/kg/injection, schedule: Q04DX005 (ip), vehicle: other): 99 % of control
T/C (dose: 100.0 mg/kg/injection, schedule: Q04DX005 (ip), vehicle: other): 115 % of control
T/C (dose: 100.0 mg/kg/injection, schedule: Q04DX005 (oral), vehicle: other): 102 % of control
T/C (dose: 200.0 mg/kg/injection, schedule: Q04DX005 (oral), vehicle: other): 94 % of control

NCCc1nc(-c2nc(C(=O)O)cs2)cs1
T/C [3]: 98 % of control
T/C [4]: 95 % of control
T/C [5]: 91 % of control
T/C [6]: 92 % of control
T/C [7]: 95 % of control

CCOC(=O)C1CCC(NC(=O)N(CCCl)N=O)CC1 (stereo not given)
T/C (dose: 33.0 mg/kg/injection, schedule: Q01DX001 (ip), vehicle: gum acacia): 196 % of control
T/C (dose: 44.0 mg/kg/injection, schedule: Q01DX001 (ip), vehicle: gum acacia): 192 % of control
